# Data taken from patent publication US10285982B2, “3-(1H-pyrrolo[2,3-B]pyridin-2-yl)-1H-pyrazolo[3,4-C]pyridines and therapeutic uses thereof” (Samumed, LLC, priority 2015, dated 2019).
# How the values were obtained:
# Assay type in all cases: cell-based
# [1] = test system: primary human fibroblasts derived from IPF patients (LL29 cells) treated with TGF-β1; test: Inhibition of fibrotic process, αSMA staining in TGF-β1 treated LL29 fibroblasts; details: Fibroblast; for EC50: 96 h, % αSMA positive LL29 cells, TGF-β1 20 ng/mL, 4 days; for inhibition at 10 µM: given where EC50 >10 μM, αSMA, LL29 cells, TGF-β1, read-out: percent inhibition at 10 μM
# Excerpt: Representative compounds were screened using primary human fibroblasts (derived from IPF patients) treated with TGF-β1 to determine their ability to inhibit the fibrotic process.
# Primary human fibroblasts derived from IPF patients (LL29 cells) [^1Xiaoqiu Liu, et. al., “Fibrotic Lung Fibroblasts Show Blunted Inhibition by cAMP Due to Deficient cAMP Response Element-Binding Protein Phosphorylation”, Journal of Pharmacology and Experimental Therapeutics (2005), 315(2), 678-687; ^2Watts, K. L., et. al., “RhoA signaling modulates cyclin D1 expression in human lung fibroblasts; implications for idiopathic pulmonary fibrosis”, Respiratory Research (2006), 7(1), 88] were obtained from American Type Culture Collection (ATCC) and expanded in F12 medium supplemented with 15% Fetal Bovine Serum and Penicillin/Streptomycin.
# Each compound was dissolved in DMSO as a 10 mM stock and used to prepare compound source plates. Serial dilution (1:2, 11-point dose-response curves from 10 μM to 1.87 nM) and compound transfer was performed using the ECHO 550 (Labcyte, Sunnyvale, Calif.) into 384-well clear bottom assay plates (Greiner Bio-One) with appropriate DMSO backfill for a final DMSO concentration of 0.1%. LL29 cells are plated at 1,500 cells/well in 80 μL/well F12 medium supplemented with 1% Fetal Bovine Serum. One hour after addition of the cells, TGF-β1 (Peprotech; 20 ng/mL) was added to the plates to induce fibrosis (ref. 1 and 2 above). Wells treated with TGF-β1 and containing DMSO were used as controls. Cells were incubated at 37° C. and 5% CO2 for 4 days. Following incubation for 4 days, SYTOX green nucleic acid stain (Life Technologies [Thermo Fisher Scientific]) was added to the wells at a final concentration of 1 μM and incubated at room temperature for 30 min. Cells were then fixed using 4% formaldehyde (Electron Microscopy Sciences), washed 3 times with PBS followed by blocking and permeabilization using 3% Bovine Serum Albumin (BSA; Sigma) and 0.3% Triton X-100 (Sigma) in PBS. Cells were then stained with antibody specific to α-smooth muscle actin (αSMA; Abcam) (ref. 1 and 2 above) in 3% Bovine Serum Albumin (BSA; Sigma) and 0.3% Triton X-100 (Sigma) in PBS, and incubated overnight at 4° C. Cells were then washed 3 times with PBS, followed by incubation with Alexa Flor-647 conjugated secondary antibody (Life Technologies [Thermo Fisher Scientific]) and DAPI at room temperature for 1 hour. Cells were then washed 3 times with PBS and plates were sealed for imaging. αSMA staining was imaged by excitation at 630 nm and emission at 665 nm and quantified using the Compartmental Analysis program on the CellInsight CX5 (Thermo Scientific). Dead or apoptotic cells were excluded from analysis based on positive SYTOX green staining. % of total cells positive for αSMA were counted in each well and normalized to the average of 11 wells treated with TGF-β1 on the same plate using Dotmatics' Studies Software. The normalized averages (fold change over untreated) of 3 replicate wells for each compound concentration were used to create dose-responses curves and EC50 values were calculated using non-linear regression curve fit in the Dotmatics' Studies Software. For EC50 of >10 μM, the percent inhibition at 10 μM is provided.
# [2] = test system: IL-6 (THP-1 cells); test: IL-6 inhibition in LPS-stimulated THP-1 cells (HTRF); details: Homo sapiens; for EC50: IL-6 in THP-1 cells, LPS 500 ng/mL, 22 hours; for inhibition at 10 µM: given where EC50 >10 μM, IL-6, THP-1 cells, LPS, read-out: percent inhibition at 10 μM
# Protocol: Human monocyte cell line (THP-1 cells; Catalog # TIB-202, ATCC, Manassas, Va.) were cultured in Roswell Park Memorial Institute (RPMI) 1640 Medium (Catalog #21870-100, Buffalo, N.Y.) with 1% L-glutamine, 1% HEPES, 1% Sodium Pyruvate, 2% Sodium Bicarbonate supplemented with 100 units/mL penicillin, 50 μg/mL streptomycin, 2-mercaptoethanol (0.05 mM) [basal medium] and 10% fetal bovine serum (Catalog #16140089, Life Technologies, Carlsbad, Calif.) at 37° C. and 5% CO2.
# THP-1 cells were cultured in basal media with 1% FBS for 24 hours before the start of the assay. Each compound was dissolved in DMSO as a 10 mM stock and used to prepare compound source plates. Serial dilution (1:3, 10-point dose-response curves starting from 10 μM) and compound transfer was performed using the ECHO 550 (Labcyte, Sunnyvale, Calif.) into 384-well white low volume assay plates (Greiner Bio-One) with appropriate DMSO backfill for a final DMSO concentration of 0.1%. THP-1 cells were plated at 5000 cells/well in the 384-well plates and incubated at 37° C. for 2 h. 500 ng/mL of LPS was added after 2 hours and cells were incubated for another 22 hours at 37° C. Plates were spun in a centrifuge for 1 minute at […] and a mixture of anti-IL6 XL665, and anti-IL6 Cryptate diluted in reconstitution buffer (Cisbio Inc.) was added to each well. Following incubation for 3 hrs at room temperature, Homogeneous Time-Resolved Fluorescence (HTRF) was measured using the Envision (Perkin Elmer) at 665 nm and […]. The ratio of fluorescence at 665 nm to 620 nm was used as a readout for IL6 quantification. All samples were processed in duplicate. Readings were normalized to DMSO treated cells and normalized activities were utilized for EC50 calculations using the dose-response log (inhibitor) vs. response-variable slope (four parameters) nonlinear regression feature available in GraphPad Prism 5.0 (or Dotmatics). For EC50 of >10 μM, the percent inhibition at 10 μM is provided.
# [3] = test system: SW480 colon cancer cells; test: Cell viability assay (CellTiter-Blue); details: Homo sapiens, 96 h, four days; for inhibition at 10 µM: given where EC50 >10 μM, read-out: percent inhibition at 10 μM
# Protocol: Representative compounds were screened using the following assay procedure to assess the effect on cell viability as described below.
# Each compound was dissolved in DMSO as a 10 mM stock and used to prepare compound source plates. Serial dilution (1:3, 8-point dose-response curves from 10 μM to 0.0045 μM) and compound transfer was performed using the ECHO 550 (Labcyte, Sunnyvale, Calif.) into 96-well clear bottom, black-walled plates (Corning-Costar).
# Approximately 2×10^3 SW480 colon cancer cells were seeded into each well and allowed to incubate in the presence or absence of compound for four days at 37° C./5% CO2. Eight replicates of DMSO-treated cells served as controls and cells treated with compound were performed in duplicate.
# After incubation, 20 μL of CellTiter-Blue (Promega) was added to each well allowed to incubate for approximately 3 hours. This reagent was a buffered solution which contains resazurin, metabolically active cells were able to reduce rezarurin (blue) into resorufin (pink) which was highly fluorescent. This measured fluorescence was used as a readout for cell viability.
# After incubation, the plates were read at Ex 560 nm Em 590 nm (Cytation 3, BioTek). Dose-response curves were generated and EC50 concentration values were calculated using non-linear regression curve fit in the GraphPad Prism (San Diego, Calif.) or Dotmatics' Studies Software (Bishops Stortford, UK). For EC50 of >10 μM, the percent inhibition at 10 μM is provided.
SMILES,EC50 [2] [µM],EC50 [3] [µM],EC50 [1] [µM],inhibition at 10 µM [2] [%],inhibition at 10 µM [3] [%],inhibition at 10 µM [1] [%]
"c1cc(N2CCCCC2)c2cc(-c3n[nH]c4cnc(-c5cncc(CN6CCCC6)c5)cc34)[nH]c2n1 [Compound 182, 3-(4-(Piperidin-1-yl)-1H-pyrrolo[2,3-b]pyridin-2-yl)-5-(5-(pyrrolidin-1-ylmethyl)pyridin-3-yl)-1H-pyrazolo[3,4-c]pyridine]",> 10,> 10,4.51,39,54.9,–
"O=C(Nc1cncc(-c2cc3c(-c4cc5c(-c6cccc(F)c6)ccnc5[nH]4)n[nH]c3cn2)c1)C1CC1 [Compound 20, N-(5-(3-(4-(3-Fluorophenyl)-1H-pyrrolo[2,3-b]pyridin-2-yl)-1H-pyrazolo [3,4-c]pyridin-5-yl)pyridin-3-yl)cyclopropanecarboxamide]",> 10,0.159,0.019,42.8,–,–
"CN(C)CCNc1cc(F)cc(-c2ccnc3[nH]c(-c4n[nH]c5cnc(-c6cncnc6)cc45)cc23)c1 [Compound 475, N^1-(3-Fluoro-5-(2-(5-(pyrimidin-5-yl)-1H-pyrazolo[3,4-c]pyridin-3-yl)-1H-pyrrolo[2,3-b]pyridin-4-yl)phenyl)-N^2,N^2-dimethylethane-1,2-diamine]",> 10,> 10,> 10,6.3,17,27.5
"CCNCc1cncc(-c2cc3c(-c4cc5c(-c6cccnc6)ccnc5[nH]4)n[nH]c3cn2)c1 [Compound 90, N-((5-(3-(4-(Pyridin-3-yl)-1H-pyrrolo[2,3-b]pyridin-2-yl)-1H-pyrazolo[3,4-c]pyridin-5-yl)pyridin-3-yl)methyl)ethanamine]",> 10,> 10,1.63,33.9,16,–
"CN1CCN(c2ccnc3[nH]c(-c4n[nH]c5cnc(-c6cn[nH]c6)cc45)cc23)CC1 [Compound 635, 3-(4-(4-Methylpiperazin-1-yl)-1H-pyrrolo[2,3-b]pyridin-2-yl)-5-(1H-pyrazol-4-yl)-1H-pyrazolo[3,4-c]pyridine]",> 10,> 10,> 10,10.9,10.7,44.9

# Second part, led by results:
EC50 [2] [µM],EC50 [3] [µM],SMILES,EC50 [1] [µM],inhibition at 10 µM [2] [%],inhibition at 10 µM [3] [%],inhibition at 10 µM [1] [%]
0.023,> 10,"c1cncc(-c2cc3c(-c4cc5cccnc5[nH]4)n[nH]c3cn2)c1 [Compound 256, 5-(Pyridin-3-yl)-3-(1H-pyrrolo[2,3-b]pyridin-2-yl)-1H-pyrazolo[3,4-c]pyridine]",1.7,–,19.3,–
> 10,> 10,"c1cncc(-c2ccnc3[nH]c(-c4n[nH]c5cnc(-c6cncc(CN7CCCC7)c6)cc45)cc23)c1 [Compound 98, 3-(4-(Pyridin-3-yl)-1H-pyrrolo[2,3-b]pyridin-2-yl)-5-(5-(pyrrolidin-1-ylmethyl)pyridin-3-yl)-1H-pyrazolo[3,4-c]pyridine]",8.15,27.7,11.5,–
> 10,> 10,"c1cncc(-c2ccnc3[nH]c(-c4n[nH]c5cnc(-c6cncnc6)cc45)cc23)c1 [Compound 111, 3-(4-(Pyridin-3-yl)-1H-pyrrolo[2,3-b]pyridin-2-yl)-5-(pyrimidin-5-yl)-1H-pyrazolo[3,4-c]pyridine]",> 10,37.4,17.3,1.4
> 10,> 10,"CN1CCN(c2ccnc3[nH]c(-c4n[nH]c5cnc(-c6cncc(N(C)C)c6)cc45)cc23)CC1 [Compound 231, N,N-Dimethyl-5-(3-(4-(4-methylpiperazin-1-yl)-1H-pyrrolo[2,3-b]pyridin-2-yl)-1H-pyrazolo[3,4-c]pyridin-5-yl)pyridin-3-amine]",> 10,3.7,9.2,41.8
